ChEMBL document CHEMBL3585307, “Cyclic Steroid Glycosides from the Starfish Echinaster luzonicus: Structures and Immunomodulatory Activities” (J Nat Prod, 2015)
Active and inactive are the calls of the source. The rule behind the calls is not given here.

What was measured:
RAW264.7 [1] = assay: Induction of reactive oxygen species generation in mouse RAW264.7 cells at 0.01 to 10 uM after 24 hrs by DCF-DA dye-based/immunomodulatory activity assay; format: functional, cell-based
RAW264.7 [2] = assay: Stimulation of lysosomal activity in mouse RAW264.7 cells at 0.1 uM after 24 hrs by acridine orange based/immunomodulatory activity assay relative to 1 ug/ml LPS stimulation; format: functional, cell-based
RAW264.7 [3] = assay: Induction of reactive oxygen species generation in mouse RAW264.7 cells at 0.01 uM after 24 hrs by DCF-DA dye-based/immunomodulatory activity assay relative to control; format: functional
RAW264.7 [4] = assay: Stimulation of lysosomal activity in mouse RAW264.7 cells at 0.001 to 1 uM after 24 hrs by acridine orange based/immunomodulatory activity assay; format: functional, cell-based
RAW264.7 [5] = assay: Stimulation of lysosomal activity in mouse RAW264.7 cells after 24 hrs by acridine orange based/immunomodulatory activity assay; format: functional, cell-based
RAW264.7 [6] = assay: Induction of NO production in mouse RAW264.7 cells after 24 hrs by FA-OMe fluorescent probe based/immunomodulatory activity assay; format: functional, cell-based
RAW264.7 [7] = assay: Induction of NO production in mouse RAW264.7 cells at 0.1 uM after 24 hrs by FA-OMe fluorescent probe based/immunomodulatory activity assay; format: functional
RAW264.7 [8] = assay: Induction of NO production in mouse RAW264.7 cells at 0.01 uM after 24 hrs by FA-OMe fluorescent probe based/immunomodulatory activity assay; format: functional
RAW264.7 [9] = assay: Stimulation of lysosomal activity in mouse RAW264.7 cells at 10 uM after 24 hrs by acridine orange based/immunomodulatory activity assay; format: functional, cell-based
RAW264.7 [10] = assay: Cytotoxicity against mouse RAW264.7 cells assessed as cell viability at 0.001 to 50 uM after 48 hrs by MTT assay; format: cell-based; details: raw264.7, 48 h
RAW264.7 [11] = assay: Stimulation of lysosomal activity in mouse RAW264.7 cells at 0.1 uM after 24 hrs by acridine orange based/immunomodulatory activity assay; format: functional

| SMILES | Activity (RAW264.7 [1]) | Activity (RAW264.7 [2]) | fold change (FC) (RAW264.7 [3]) | Activity (RAW264.7 [4]) | Activity (RAW264.7 [5]) | Activity (RAW264.7 [6]) | Activity (RAW264.7 [7]) | Activity (RAW264.7 [8]) | Activity (RAW264.7 [9]) | Activity (RAW264.7 [10]) | Activity (RAW264.7 [11]) |
| --- | --- | --- | --- | --- | --- | --- | --- | --- | --- | --- | --- |
| CC(C)CC(=O)C[C@@H](C)[C@H]1CC[C@H]2C3=C[C@H]4OC[C@H]5O[C@@H](O[C@H]6[C@@H](OC[C@H](O)[C@@H]6O)O[C@H]6[C@H](O[C@H]7CC[C@@](C)([C@@H]4C7)[C@H]3CC[C@]12C)O[C@H](C(=O)O)[C@@H](O)[C@@H]6O)[C@H](O)[C@@H](O)[C@H]5O | Active | Active | 2 | Active | Dose-dependent effect | Dose-dependent effect | 15% | 15% | inactive | Non-toxic | 50% |
| CC(C)CC(=O)C[C@@H](C)[C@H]1CC[C@H]2C3=C[C@H]4OC[C@H]5O[C@@H](O[C@H]6[C@@H](OC[C@H](O)[C@@H]6O)O[C@H]6[C@H](O[C@H]7CC[C@@](C)([C@@H]4C7)[C@H]3CC[C@]12C)O[C@H](C(=O)O)[C@@H](O)[C@@H]6O)[C@H](O)[C@@H](O)[C@@H]5O | inactive | – | – | – | – | inactive | – | – | – | Non-toxic | – |
